Experimental data as given in patent US8642656B2, “Calixarene-based peptide conformation mimetics, methods of use, and methods of making” (priority 2004, dated 2014).
Entries after “also recorded” stand apart in the source; their conditions may differ. Read-outs that look alike come from different tables or passages of the source.

Key:
[1] = test system: B16F10 tumor cells; experiment: Proliferation of B16F10 tumor cells; format: cell-based, murine
[2] = test system: leukocytes in tumors of tumor bearing mice; experiment: Leukocyte infiltration into tumors, anti-CD45 and anti-CD8 staining; format: in vivo; conditions: compared with βpep-25; FIG. 4
Procedure: Female athymic nude mice (nu/nu, 5-6 weeks old) were used. These mice were purchased from the National Cancer Institute and allowed to acclimatize to local conditions for at least one week. Animals were given water and standard chow ad libitum, and were kept on a 12-hour light/dark cycle. All experiments were approved by the University of Minnesota Research Animal Resources ethical committee. Mice were randomized and split into three groups: 1) human serum albumin (10 mg/kg/day), 2) βpep-25 (10 mg/kg/day) and 3) peptide mimetic agent (5 mg or 10 mg/kg/day). Test compounds were diluted in DMSO and administered using osmotic mini-pumps (Durect, Cupertino, Calif.). Exponentially growing MA148 human ovarian carcinoma cells, kindly provided by Prof. Ramakrishnan (R. P. Dings et al., Cancer Res., 63, 382-385 (2003)) or B16 mouse melanoma cells were cultured in RPM1 1640 medium (Life Technologies, Grand Island, N.Y.). This medium was supplemented with 10% fetal bovine serum and 1% penicillin/streptomycin (Cellgro, Mediatech, Washington, D.C.) at 37° C and 5% CO2. […]
Similar size tumors without apparent widespread necrosis were embedded in tissue freezing medium (Miles Inc.; Elkart, Ind.) and snap frozen in liquid nitrogen. […] The vessel density and architecture was quantified as described earlier [Griffioen et al., Biochemical Journal 354, 233-242 (2001)]. […]

[3] = test system: LPS from E. coli serotype 0111:B4; experiment: LPS neutralization assay (Limulus amoebocyte lysate, QCL-1000); format: biochemical; conditions: read-out: IC50 values (μM) for LPS binding, E. coli 0111:B4
Procedure, shortened: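 Absorbance at 405-410 nm tracks pNA released from a synthetic substrate by LPS-activated lysate enzyme. Compounds were titrated against 0.04 units of each LPS. IC50 values derive from sigmoidal curve fitting.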

[4] = test system: MA148 human ovarian carcinoma; experiment: MA148 tumor growth model in athymic mice; format: in vivo; conditions: for tumor growth inhibition: MA148, end of 28 days; for MA148 tumor growth (in words): tumor-bearing mice
Procedure: Female athymic nude mice (nu/nu, 5-6 weeks old) were used. These mice were purchased from the National Cancer Institute and allowed to acclimatize to local conditions for at least one week. Animals were given water and standard chow ad libitum, and were kept on a 12-hour light/dark cycle. All experiments were approved by the University of Minnesota Research Animal Resources ethical committee. Mice were randomized and split into three groups: 1) human serum albumin (10 mg/kg/day), 2) βpep-25 (10 mg/kg/day) and 3) peptide mimetic agent (5 mg or 10 mg/kg/day). Test compounds were diluted in DMSO and administered using osmotic mini-pumps (Durect, Cupertino, Calif.). Exponentially growing MA148 human ovarian carcinoma cells, kindly provided by Prof. Ramakrishnan (R. P. Dings et al., Cancer Res., 63, 382-385 (2003)) or B16 mouse melanoma cells were cultured in RPM1 1640 medium (Life Technologies, Grand Island, N.Y.). This medium was supplemented with 10% fetal bovine serum and 1% penicillin/streptomycin (Cellgro, Mediatech, Washington, D.C.) at 37° C and 5% CO2. One hundred microliters (100 μL) of this tumor cell suspension (2×10^7 cells/ml) was then injected subcutaneously into the right flank of each mouse. Pumps were implanted into the left flank of mice for subcutaneous administration of compound over a 28-day treatment span.
Two variants of this model were used: prevention and intervention. For the prevention variant, treatment was initiated at the time of inoculation with MA148 cells. For the intervention variant, tumors were allowed to grow to an average size of 50 mm^3 (usually day 7 post inoculation) before treatment was initiated. With either variant, animals were randomized prior to the initiation of treatment. Treatment was administered via osmotic mini-pumps (Durect, Cupertino, Calif.), which were implanted subcutaneously in the left flank of mice. Concentrated solutions of βpep-25 or DBF analogs were formulated such that the 28-day treatment period would be covered by implantation of a single pump. In each study, control groups of animals were administered either PBS or PBS containing human serum albumin.
Female athymic nude mice (nu/nu, 5-6 weeks old) or C57BL/6 male mice were purchased from the National Cancer Institute and allowed to acclimatize to local conditions for at least one week. Animals were provided water and standard chow ad libitum, and were kept on a 12 hour light/dark cycle. All experiments followed protocols approved by the University of Minnesota Research Animal Resources Ethical Committee. Exponentially growing MA148 human ovarian carcinoma cells, kindly provided by Prof. Ramakrishnan (Dings et al., Cancer Res 63, 382-385 (2003)), and B16F10 murine melanoma cells, kindly provided by Prof. Fidler, were cultured in RPM1 1640 medium (Life Technologies, Grand Island, N.Y.) (van der Schaft, et al., Faseb J 16, 1991-1993 (2002)). This medium was supplemented with 10% fetal bovine serum and 1% penicillin/streptomycin (Cellgro, Mediatech, Washington, D.C.) at 37° C. and 5% CO2. 100 μL of this tumor cell suspension (2×10^7 MA148 cells/ml and 2×10^6 B16F10 cells/ml) was then injected subcutaneously into the right hind flank of each mouse (athymic or C57BL/6, respectively).
Tumors were allowed to grow to an average size of at least 50 mm^3 before treatment was initiated, and animals were randomized prior to the initiation of treatment. Treatment was administered in one of two ways: s.c. from osmotic mini-pumps, and i.p. injection. Osmotic mini-pumps (Durect, Cupertino, Calif.) were implanted subcutaneously in the left flank of mice, and concentrated solutions of calixarene analogs or βpep-25 were formulated in PBS containing 30% (v/v) DMSO such that the 14-day or 28-day treatment period would be covered by implantation of a single pump. In each study, control groups of animals were administered either PBS (30% DMSO v/v) or PBS containing human serum albumin to control for protein content. […]

[5] = test system: MA148 human ovarian carcinoma; experiment: Proliferation of MA148 tumor cells; format: cell-based; conditions: read-out: IC50 against MA148 tumor cells
[6] = 10 mg/kg/day s.c. osmotic mini-pump

With “5,11,17,23-Tetra-tert-butyl-25,27-bis(2-guanidinoethoxy)-26,28-dihydroxy calix[4]arene trifluoroacetic acid salt [Compound 27]” the IC50 ([1]; read-out: IC50 against B16F10 tumor cells) was 10 µM, the “leukocyte infiltration into tumors (in words)” value [2] was “clearly more effective at increasing leukocyte infiltration into tumors than βpep-25” and the IC50 ([3]; Table 3, errors estimated ±30%) was over 5 µM. For the same compound, the tumor growth inhibition ([4]; 2.7 mg/kg/day s.c. osmotic mini-pump) was “about 65%”, the tumor growth inhibition [4, 6] was “about 65%” and the “MA148 tumor growth (in words)” value ([4]; trifluoroacetic acid salt) was “inhibits MA148 tumor growth; also recorded: significantly inhibited”. The IC50 [5] was 3 µM.
With CN(C)CCNC(=O)COc1c2cccc1Cc1cccc(c1OCC(=O)NCCN(C)C)Cc1cccc(c1OCC(=O)NCCN(C)C)Cc1cccc(c1OCC(=O)NCCN(C)C)C2 [Compound 40] the “IC50 against B16F10 tumor cells” value [1] was “neither demonstrated activity”, the “leukocyte infiltration into tumors (in words)” value [2] was “clearly more effective at increasing leukocyte infiltration into tumors than βpep-25” and the IC50 ([3]; Table 2) was over 5 µM. For the same compound, the IC50 ([3]; Table 3, errors estimated ±30%) was over 5 µM, the tumor growth inhibition ([4]; 2.4 mg/kg/day s.c. osmotic mini-pump) was “about 65%” and the tumor growth inhibition [4, 6] was 81%. The “MA148 tumor growth (in words)” value [4] was “inhibition of MA148 tumor growth”, the “MA148 tumor growth (in words)” value ([4]; listed as KM0118 (40)) was “significantly inhibited” and the IC50 [5] was 1 µM.
